Measured values published in patent publication US20160158189A1, “SENSITIZATION OF CANCER CELLS TO APOPTOSIS INDUCTION BY FLAVAGLINES AND 5-HYDROXY-FLAVONES” (DEUTSCHES KREBSFORSCHUNGSZENTRUM, priority 2013, published 2016).

Tests used:
[1] = test system: Jurkat (J16) cells; assay: Apoptotic cell death by DNA fragmentation, Jurkat; assay type: cell-based, human; details: Jurkat; ABT-263 with different concentrations of rocaglamide, 48 h
Method: (§1) The human malignant cell lines used in this study are the T cell leukemic cell lines CEM, Molt-4 and Jurkat (J16), the HL cell line KM-H2, the cervix adenocarcinoma cell line HeLa, the melanoma cell line A375, the hepatocellular carcinoma cell line HepG2, the pancreatic carcinoma cell line MiaPaca, the breast cancer cell line MCF-7, the prostatic cancer cell line PC3 and the colon carcinoma cell line HCT116. All cells were cultured in RPMI 1640 or DMEM medium (GIBCO laboratories, Grand Island, USA), supplemented with 10% FCS, 100 Units/ml penicillin (GIBCO), 100 μg/m1 streptomycin (GIBCO) and 2 mM L-glutamine (GIBCO) at 37° C. and 5%. Wogonin (BIOTREND Chemicals AG, Wangen, Switzerland), apigenin, chrysin, luteolin and baicalein (Sigma, St. Louis, USA) were solved in dimethyl sulfoxide (DMSO; Roth, Karlsruhe, Germany) at a stock concentration of 50 mM. Cells were treated with different concentrations of different flavones or ABT-263 (Selleck Chemicals, Houston, USA) for 24 to 48 h. Apoptotic cell death was examined by analysis of DNA fragmentation as previously described 23 (Fas et al.,2006, Blood 108: 3700-6). Results are presented as % specific DNA fragmentation using the formula: (percentage of experimental apoptosis-percentage of spontaneous apoptosis)/(100-percentage of spontaneous apoptosis)×100.

[2] = test system: HTLV-1-associated ATL cell line MT-2; assay: Apoptotic cell death by DNA fragmentation, MT-2; assay type: cell-based, human; details: ABT-263 with different concentrations of rocaglamide, 48 h
Method: (§2) Wogonin (BIOTREND Chemicals AG, Wangen, Switzerland), apigenin, chrysin, luteolin and baicalein (Sigma, St. Louis, USA) were solved in dimethyl sulfoxide (DMSO; Roth, Karlsruhe, Germany) at a stock concentration of 50 mM. Cells were treated with different concentrations of different flavones or ABT-263 (Selleck Chemicals, Houston, USA) for 24 to 48 h. Apoptotic cell death was examined by analysis of DNA fragmentation as previously described 23 (Fas et al.,2006, Blood 108: 3700-6). Results are presented as % specific DNA fragmentation using the formula: (percentage of experimental apoptosis-percentage of spontaneous apoptosis)/(100-percentage of spontaneous apoptosis)×100.
(§3) To investigate whether rocaglamide could enhance the toxicity of ABT-263 on leukemic cells, leukemic T cell line Jurkat and the HTLV-1-associated ATL cell line MT-2 were treated with indicated amounts of ABT-263 in the absence or presence of different concentration of rocaglamide for 48 h. Apoptotic cell death was determined by DNA fragmentation.

[3] = test system: caspase-8, caspase-3, PARP; assay: Western blot of caspases and PARP; assay type: cell-based, human; details: Jurkat (J16); combination with ABT-263, 24 h
From the text: (§4) For each sample, 1×10^7 cells were lysed as previously described. 23 Equal amounts of protein were separated on 5-13% SDS-PAGE depending on the molecular sizes of the proteins and blotted onto a nitrocellulose membrane (Amersham Biosciences, Little Chalfon, UK) as previously described. 23 The following antibodies were used: Bad, Bax, Bcl-xL, Bcl-w, XIAP from Cell Signaling Technology, Danvers, USA; Bcl-2 (sc-509) and Mcl-1 (sc-819) from Santa Cruz Biotechnology, Heidelberg, Germany; Tubulin and actin from Sigma, Saint Louis, USA.
as §3

[4] = test system: melanoma cell line A375; assay: Apoptotic cell death by DNA fragmentation, A375; assay type: cell-based, human; details: 1 μM ABT-263, 48 h
Method: as §1

[5] = test system: colon carcinoma cell line HCT116; assay: Apoptotic cell death by DNA fragmentation, HCT116; assay type: cell-based, human; details: 1 μM ABT-263, 48 h
Method: as §1

[6] = test system: prostatic cancer cell line PC3; assay: Apoptotic cell death by DNA fragmentation, PC3; assay type: cell-based, human; details: 1 μM ABT-263, 48 h
Method: as §1

[7] = test system: human ALL RS4;11; details: 100 mg/kg/day; cited from earlier work
[8] = test system: Hodgkin lymphoma (HL) cell line KM-H2; assay: Apoptotic cell death by DNA fragmentation, KM-H2; assay type: cell-based, human; details: 1 μM ABT-263, 48 h
Method: as §1

[9] = test system: breast cancer cell line MCF-7; assay: Apoptotic cell death by DNA fragmentation, MCF-7; assay type: cell-based, human; details: 1 μM ABT-263, 48 h
Method: as §1

[10] = test system: pancreatic carcinoma cell line MiaPaca; assay: Apoptotic cell death by DNA fragmentation, MiaPaca; assay type: cell-based, human; details: 1 μM ABT-263, 48 h
Method: as §1

[11] = test system: Mcl-1; assay: Western blot analysis of Mcl-1 expression; assay type: cell-based, human; details: Jurkat and CEM with acquired ABT-263 resistance
From the text: as §4

[12] = test system: proliferating normal peripheral blood T cells; assay: Apoptotic cell death by DNA fragmentation, proliferating normal T cells; assay type: cell-based; details: human
Method: Normal T cells were isolated from peripheral blood of healthy donors and activated to proliferate as described in the Materials and Methods. The proliferating T cells were treated with different concentrations of ABT-263 in the absence or presence of wogonin as indicated. Apoptotic cell death was determined by DNA fragmentation. Results are presented as pooled data from four independent donors. (B) Proliferating normal T cells express higher levels of Mcl-1 and Bcl-2 than leukemic Jurkat and Molt-4 T cells. Total cell lysates of activated T cells from three healthy donors were compared with leukemic cells for the expression levels of Mcl-1, Bcl-2, Bcl-xL and Bcl-w. CDK6 is known to be over-expressed in many tumor cells and was used as a marker for malignant cells. Representative blots from two independent experiments are shown. […] Human platelets in 10% FCS were treated with different concentrations of ABT-263 in the absence or presence of wogonin as indicated. After 1 h treatment, apoptotic cell death was determine by staining with annexin V/FITC. Results are average of two independent assays.
Human peripheral blood T cells were prepared as described previously 23 and were more than 90% CD3 positive. For generation of proliferating T cells, freshly isolated T cells were cultured at 2×10^6 cells/ml and were activated with […] PHA overnight. Activated T cells were then washed three times and cultured for additional 5 days in the presence of 25 U/ml IL-2. Platelets were prepared as described in Vogler et al., 2011, Blood 117: 7145-54.
as §2, with “Results are presented as % specific DNA fragmentation using the formula: (percentage of experimental apoptosis-percentage of spontaneous apoptosis)/(100-percentage of spontaneous apoptosis)×100.” left out

[13] = test system: cervix adenocarcinoma cell line HeLa; assay: Apoptotic cell death by DNA fragmentation, HeLa; assay type: cell-based, human; details: 1 μM ABT-263, 48 h
Method: as §1

[14] = test system: CEM tumors; assay: CEM xenograft in immunodeficient mice; assay type: in vivo; details: Rag2-/-/Il2rg-/- mice, s.c. CEM; ABT-263 50 mg/kg p.o. and/or wogonin 50 mg/kg i.p.
Method: Immunodeficient mice (Rag2−/−/II2rg−/−) were implanted subcutaneously in the dorsal flank region with CEM (5×10^7 cells). After the tumors reached to approximate 35 mm3, tumor size matched mice were treated with ABT-263 (50 mg/kg, once in each third or fourth day) in the presence or absence of 50 mg/kg wogonin. ABT-263 was formulated according to the protocol previously described 9 and administered p.o. Wogonin dissolved in DMSO was diluted in sunflower oil and administered i.p. For combination studies, ABT-263 was given 2 h before wogonin. The control group was treated in an analogous manner with the vehicle. The tumor size was measured with a micrometer caliper two to three times weekly and the tumor volume (V) was calculated by the formula V=(width2×length)/2. All protocols using and maintaining animals were approved by the German Animal Protection Authority (Office Regierungsprasidium Karlsruhe) in Karlsruhe.

[15] = test system: Colo-357 cells; assay: Apoptotic cell death by DNA fragmentation, Colo-357; assay type: cell-based; details: 1 μM ABT-263, 48 h
Method: as §2

[16] = test system: ABT-263-resistant Jurkat (Jurkat-R); assay: Apoptotic cell death by DNA fragmentation, ABT-263-resistant Jurkat; assay type: cell-based, human; details: Jurkat treated with increasing ABT-263 up to 10 μM, 3 months
Method: as §2

[17] = test system: hepatocellular carcinoma cell line HepG2; assay: Apoptotic cell death by DNA fragmentation, HepG2; assay type: cell-based, human; details: HepG3 (so in the source); 1 μM ABT-263, 48 h
Method: as §1

[18] = test system: ABT-263-resistant CEM (CEM-R); assay: Apoptotic cell death by DNA fragmentation, ABT-263-resistant CEM; assay type: cell-based, human; details: CEM treated with increasing ABT-263 up to 1 μM, 2 months
Method: as §2

Structure (SMILES) | sensitization of ABT-263-induced apoptosis [1] | sensitization of ABT-263-induced apoptosis [2] | activities of caspase-8, caspase-3 and PARP cleavage [3] | cell death [4] | cell death [5] | cell death [6] | tumor response [7] | cell death [8] | cell death [9] | cell death [10] | Mcl-1 expression after long-term ABT-263 exposure [11] | sensitivity of proliferating normal T cells to ABT-263 [12] | cell death [13] | tumor growth / tumor response [14] | cell death [15] | sensitivity to ABT-263 after long-term exposure [16] | cell death [17] | sensitivity to ABT-263 after long-term exposure [18]
COc1ccc([C@@]23Oc4cc(OC)cc(OC)c4[C@]2(O)[C@H](O)[C@H](C(=O)N(C)C)[C@H]3c2ccccc2)cc1 [rocaglamide, (1R,2R,3S,3aR,8bS)-1,8b-dihydroxy-6,8-dimethoxy-3a-(4-methoxyphenyl)—N,N-dimethyl-3-phenyl-2,3-dihydro-1H-cyclopenta[b][1]benzofuran-2-carboxamide] | sensitized by rocaglamide in both leukemic cell lines in a dose-dependent manner | sensitized by rocaglamide in both leukemic cell lines in a dose-dependent manner | Significant enhancement of activities of caspase-8, caspase-3 and increase in PARP cleavage | – | – | – | – | – | – | – | – | – | – | – | – | – | – | –
CC1(C)CCC(c2ccc(Cl)cc2)=C(CN2CCN(c3ccc(C(=O)NS(=O)(=O)c4ccc(N[C@H](CCN5CCOCC5)CSc5ccccc5)c(S(=O)(=O)C(F)(F)F)c4)cc3)CC2)C1 [ABT-263, (R)-4-(4-((4′-chloro-4,4-dimethyl-3,4,5,6-tetrahydro-[1,1′-biphenyl]-2-yl)methyl)piperazin-1-yl)--N-((4-((4-morpholino-1-(phenylthio)butan-2-yl)amino)-3-((trifluoromethyl)sulfonyl)phenyl)sulfonyl)benzamide] | – | – | – | 10-20% | 10-20% | less than 5% | complete tumor response rate | less than 5% | less than 5% | less than 5% | elevated Mcl-1 expression | higher resistance to ABT-263 compared to leukemic cells | less than 5% | no significant inhibition of tumor growth | less than 5% | resistant to ABT-263 | 10-20% | resistant to ABT-263
